# Assay results: ChEMBL document CHEMBL5149977, “FLT3 Inhibitors in Acute Myeloid Leukemia: Challenges and Recent Developments in Overcoming Resistance” (J Med Chem, 2021)
# Columns and labels:
# [1] = target: Leukocyte tyrosine kinase receptor (Homo sapiens) (UniProt P29376); assay: Inhibition of LTK (unknown origin)
# [2] = system: BaF3; assay: cells; conditions: Mus musculus
# [3] = system: BaF3; assay: cells; conditions: Mus musculus; remark: listed apart in the source
# [4] = target: Receptor-type tyrosine-protein kinase FLT3 (Homo sapiens, UniProt P36888, ITD); assay: Inhibition of FLT3-ITD (unknown origin)
# [5] = system: BaF3; assay: cells; conditions: Mus musculus; remark: listed apart in the source
# Description: Antiproliferative activity against mouse BaF3 cells expressing FLT3-D835Y
# [6] = system: BaF3; assay: cells; conditions: Mus musculus; remark: listed apart in the source
# [7] = system: BaF3; assay: cells; conditions: Mus musculus; remark: listed apart in the source
# [8] = system: MOLM-14; assay: cells; conditions: Homo sapiens
# Description: Antiproliferative activity against human MOLM-14 cells
# [9] = system: BaF3; assay: cells; conditions: Mus musculus; remark: listed apart in the source
# [10] = system: BaF3; assay: cells; conditions: Mus musculus; remark: listed apart in the source
# [11] = system: BaF3; assay: cells; conditions: Mus musculus; remark: listed apart in the source
# [12] = system: MV4-11; assay: cells; conditions: Homo sapiens
# [13] = target: Tyrosine-protein kinase ABL1 (Homo sapiens, UniProt P00519); assay: Inhibition of ABL1 (unknown origin)
# [14] = target: Tyrosine-protein kinase Fgr (Homo sapiens, UniProt P09769); assay: Inhibition of FGR (unknown origin)
# [15] = target: Platelet-derived growth factor receptor alpha (Homo sapiens, UniProt P16234); assay: Inhibition of PDGFR alpha (unknown origin)
# [16] = target: NT-3 growth factor receptor (Homo sapiens, UniProt Q16288); assay: Inhibition of TrkC (unknown origin)
# [17] = target: Cyclin-dependent kinase 4 (Homo sapiens, UniProt P11802); assay: Inhibition of CDK4 (unknown origin)
# [18] = target: Cyclin-dependent kinase 6 (Homo sapiens, UniProt Q00534); assay: Inhibition of CDK6 (unknown origin)
# [19] = target: Cyclin-dependent kinase 2 (Homo sapiens, UniProt P24941); assay: Inhibition of CDK2 (unknown origin)
# [20] = system: MV4-11; assay: Cytotoxicity against human MV4-11 cells incubated for 72 hrs; type: functional, cell-based; conditions: MV4-11, 72 h
# [21] = system: MV4-11; assay: Cytotoxicity against human MV4-11 cells […] incubated for 72 hrs; type: functional, cell-based; conditions: MV4-11, 72 h
# [22] = target: Receptor-type tyrosine-protein kinase FLT3 (Homo sapiens, UniProt P36888, D835Y); assay: Binding affinity to FLT3-D835Y mutant (unknown origin) assessed as dissociation constant
# [23] = target: Receptor-type tyrosine-protein kinase FLT3 (Homo sapiens, UniProt P36888, D835H); assay: Binding affinity to FLT3-D835H mutant (unknown origin) assessed as dissociation constant
# [24] = target: T1, Receptor-type tyrosine-protein kinase FLT3 (Homo sapiens, UniProt P36888)
# T1 sequence (P36888 whole entry): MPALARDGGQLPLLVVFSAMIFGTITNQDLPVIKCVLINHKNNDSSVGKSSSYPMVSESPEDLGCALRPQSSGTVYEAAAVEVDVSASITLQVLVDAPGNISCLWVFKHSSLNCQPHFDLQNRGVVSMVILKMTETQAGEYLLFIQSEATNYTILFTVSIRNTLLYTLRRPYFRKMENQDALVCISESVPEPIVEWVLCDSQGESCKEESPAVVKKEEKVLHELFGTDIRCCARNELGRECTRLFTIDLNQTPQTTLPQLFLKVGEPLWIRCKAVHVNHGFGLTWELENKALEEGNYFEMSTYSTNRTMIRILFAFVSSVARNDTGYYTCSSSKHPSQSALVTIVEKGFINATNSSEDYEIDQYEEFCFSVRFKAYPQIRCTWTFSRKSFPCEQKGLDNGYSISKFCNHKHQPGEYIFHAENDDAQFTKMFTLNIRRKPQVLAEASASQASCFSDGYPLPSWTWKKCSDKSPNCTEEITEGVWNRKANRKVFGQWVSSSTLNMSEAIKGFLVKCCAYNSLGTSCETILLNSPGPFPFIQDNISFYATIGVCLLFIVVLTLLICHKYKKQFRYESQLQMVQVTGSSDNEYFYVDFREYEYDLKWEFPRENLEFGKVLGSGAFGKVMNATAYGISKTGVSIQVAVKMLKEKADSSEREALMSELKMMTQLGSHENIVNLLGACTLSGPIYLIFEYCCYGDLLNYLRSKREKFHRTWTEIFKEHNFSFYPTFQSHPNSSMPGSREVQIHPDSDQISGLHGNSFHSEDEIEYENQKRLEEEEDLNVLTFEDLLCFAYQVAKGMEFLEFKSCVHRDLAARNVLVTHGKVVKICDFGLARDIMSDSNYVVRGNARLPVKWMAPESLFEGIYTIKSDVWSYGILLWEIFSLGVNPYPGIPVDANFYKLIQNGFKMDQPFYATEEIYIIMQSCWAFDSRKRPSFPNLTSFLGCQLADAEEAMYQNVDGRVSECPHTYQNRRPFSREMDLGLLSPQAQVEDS
# Description: Inhibition of FLT3 (unknown origin)
# [25] = system: MOLM-14; assay: cells; conditions: Homo sapiens; remark: listed apart in the source
# Description: Antiproliferative activity against human MOLM-14 cells expressing F691L
# [26] = system: MOLM-13; assay: Antiproliferative activity against human MOLM-13 cells incubated for 72 hrs by MTS assay; type: functional
# [27] = system: MOLM-13; assay: Antiproliferative activity against drug resistant human MOLM-13 cells incubated for 72 hrs by MTS assay; type: functional
# [28] = Antiproliferative activity against mouse 32D cells expressing FLT3-ITD assessed as cell growth inhibition; type: functional, cell-based
# [29] = Antiproliferative activity against mouse 32D cells expressing FLT3-D835Y assessed as cell growth inhibition; type: functional, cell-based
# [30] = Antiproliferative activity against mouse 32D cells expressing FLT3-D835H assessed as cell growth inhibition; type: functional
# [31] = Antiproliferative activity against mouse 32D cells expressing FLT3-ITD-D835Y assessed as cell growth inhibition; type: functional
# [32] = Antiproliferative activity against mouse 32D cells expressing FLT3-ITD-Y842C assessed as cell growth inhibition; type: functional
# [33] = Antiproliferative activity against mouse 32D cells expressing FLT3-ITD-Y842H assessed as cell growth inhibition; type: functional
# [34] = Antiproliferative activity against mouse 32D cells expressing FLT3-ITD-F691L assessed as cell growth inhibition; type: functional
# [35] = system: BaF3; assay: Cytotoxicity against mouse BaF3 cells expressing FLT3-ITD measured after 72 hrs by cell titre glo assay; type: functional, cell-based; conditions: BaF3, 72 h
# [36] = system: BaF3; assay: Cytotoxicity against mouse BaF3 cells expressing FLT3-ITD-D835H measured after 72 hrs by cell titre glo assay; type: functional, cell-based; conditions: BaF3, 72 h
# [37] = system: BaF3; assay: Cytotoxicity against mouse BaF3 cells expressing FLT3-ITD-D835Y measured after 72 hrs by cell titre glo assay; type: functional, cell-based; conditions: BaF3, 72 h
# [38] = system: BaF3; assay: Cytotoxicity against mouse BaF3 cells expressing FLT3-ITD-F691L measured after 72 hrs by cell titre glo assay; type: functional, cell-based; conditions: BaF3, 72 h
# [39] = system: MOLM-13; assay: Cytotoxicity against human MOLM-13 cells measured after 72 hrs by cell titre glo assay; type: functional, cell-based; conditions: MOLM-13, 72 h
# [40] = system: MOLM-13; assay: Cytotoxicity against human MOLM-13 cells expressing FLT3-D835Y measured after 72 hrs by cell titre glo assay; type: functional, cell-based; conditions: MOLM-13, 72 h
# Chain of Platelet-derived growth factor receptor alpha (P16234 whole entry): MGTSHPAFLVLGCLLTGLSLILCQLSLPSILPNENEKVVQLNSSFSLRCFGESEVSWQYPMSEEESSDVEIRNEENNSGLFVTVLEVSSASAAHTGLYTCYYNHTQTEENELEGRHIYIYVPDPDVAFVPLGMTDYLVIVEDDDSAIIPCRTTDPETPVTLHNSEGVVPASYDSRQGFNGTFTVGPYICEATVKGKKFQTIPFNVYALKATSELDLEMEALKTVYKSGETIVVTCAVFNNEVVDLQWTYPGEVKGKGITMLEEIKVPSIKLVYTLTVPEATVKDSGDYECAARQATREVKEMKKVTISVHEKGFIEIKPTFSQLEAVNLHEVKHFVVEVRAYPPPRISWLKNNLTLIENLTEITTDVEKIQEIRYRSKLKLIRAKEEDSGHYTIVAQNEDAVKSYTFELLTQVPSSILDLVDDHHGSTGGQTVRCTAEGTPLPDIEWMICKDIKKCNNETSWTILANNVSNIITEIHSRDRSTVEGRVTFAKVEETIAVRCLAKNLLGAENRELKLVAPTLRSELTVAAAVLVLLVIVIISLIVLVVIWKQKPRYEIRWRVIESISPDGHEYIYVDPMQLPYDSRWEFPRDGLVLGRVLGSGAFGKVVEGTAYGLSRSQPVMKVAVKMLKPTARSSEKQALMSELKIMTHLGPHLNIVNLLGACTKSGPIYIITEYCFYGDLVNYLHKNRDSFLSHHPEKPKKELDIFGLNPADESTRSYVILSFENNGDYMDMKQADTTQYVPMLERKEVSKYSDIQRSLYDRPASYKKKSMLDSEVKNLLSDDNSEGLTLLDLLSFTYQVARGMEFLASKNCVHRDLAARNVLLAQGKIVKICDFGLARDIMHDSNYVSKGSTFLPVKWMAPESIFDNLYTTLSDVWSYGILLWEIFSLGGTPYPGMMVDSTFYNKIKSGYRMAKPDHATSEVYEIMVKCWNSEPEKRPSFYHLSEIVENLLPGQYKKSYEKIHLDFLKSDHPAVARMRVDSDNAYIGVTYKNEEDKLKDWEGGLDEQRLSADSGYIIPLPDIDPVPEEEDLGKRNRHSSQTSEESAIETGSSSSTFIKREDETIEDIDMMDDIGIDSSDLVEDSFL
# Chain of Tyrosine-protein kinase Fgr (P09769 whole entry): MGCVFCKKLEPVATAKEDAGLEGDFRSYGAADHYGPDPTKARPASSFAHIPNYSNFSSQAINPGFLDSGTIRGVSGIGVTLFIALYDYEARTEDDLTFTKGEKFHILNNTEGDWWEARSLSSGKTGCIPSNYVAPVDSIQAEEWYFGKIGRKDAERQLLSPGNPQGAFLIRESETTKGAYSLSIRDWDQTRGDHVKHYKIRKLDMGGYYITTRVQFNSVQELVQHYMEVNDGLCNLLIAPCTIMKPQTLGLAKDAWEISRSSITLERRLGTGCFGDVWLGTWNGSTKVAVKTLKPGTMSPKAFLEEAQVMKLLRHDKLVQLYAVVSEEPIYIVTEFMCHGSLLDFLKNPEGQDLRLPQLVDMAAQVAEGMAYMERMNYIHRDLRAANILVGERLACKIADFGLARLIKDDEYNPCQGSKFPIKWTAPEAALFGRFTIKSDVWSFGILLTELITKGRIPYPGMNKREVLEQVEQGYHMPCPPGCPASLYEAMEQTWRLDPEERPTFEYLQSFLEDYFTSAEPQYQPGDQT
# Chain of Tyrosine-protein kinase ABL1 (P00519 whole entry): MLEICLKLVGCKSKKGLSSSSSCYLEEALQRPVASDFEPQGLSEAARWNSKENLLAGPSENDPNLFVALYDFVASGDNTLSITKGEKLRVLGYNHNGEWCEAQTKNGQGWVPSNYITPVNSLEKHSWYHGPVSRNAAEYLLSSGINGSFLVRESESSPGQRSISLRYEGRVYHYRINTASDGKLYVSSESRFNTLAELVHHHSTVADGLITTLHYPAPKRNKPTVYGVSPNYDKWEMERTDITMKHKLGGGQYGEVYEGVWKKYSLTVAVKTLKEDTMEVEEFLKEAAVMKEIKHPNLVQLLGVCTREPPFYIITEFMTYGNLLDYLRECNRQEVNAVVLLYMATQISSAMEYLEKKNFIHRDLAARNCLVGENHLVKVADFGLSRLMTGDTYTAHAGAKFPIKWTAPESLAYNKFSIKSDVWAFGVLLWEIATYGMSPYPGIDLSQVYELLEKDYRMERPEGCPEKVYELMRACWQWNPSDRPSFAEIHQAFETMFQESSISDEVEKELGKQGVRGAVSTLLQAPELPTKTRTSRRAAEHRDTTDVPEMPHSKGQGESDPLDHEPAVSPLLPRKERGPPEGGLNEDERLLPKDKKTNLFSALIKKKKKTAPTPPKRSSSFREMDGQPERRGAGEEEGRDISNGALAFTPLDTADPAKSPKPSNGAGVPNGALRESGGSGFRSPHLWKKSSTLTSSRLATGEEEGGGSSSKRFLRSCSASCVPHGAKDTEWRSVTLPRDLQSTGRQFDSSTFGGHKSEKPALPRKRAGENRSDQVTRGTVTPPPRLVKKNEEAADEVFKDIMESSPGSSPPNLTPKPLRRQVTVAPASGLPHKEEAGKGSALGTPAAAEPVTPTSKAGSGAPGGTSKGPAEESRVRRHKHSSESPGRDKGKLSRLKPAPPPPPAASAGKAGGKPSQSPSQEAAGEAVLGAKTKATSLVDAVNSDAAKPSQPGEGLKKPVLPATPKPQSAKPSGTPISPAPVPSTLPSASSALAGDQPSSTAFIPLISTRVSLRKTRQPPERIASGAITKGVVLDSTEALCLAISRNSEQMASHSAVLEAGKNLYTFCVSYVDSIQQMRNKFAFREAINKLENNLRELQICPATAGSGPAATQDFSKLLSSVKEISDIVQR
# Chain of Cyclin-dependent kinase 4 (P11802 whole entry): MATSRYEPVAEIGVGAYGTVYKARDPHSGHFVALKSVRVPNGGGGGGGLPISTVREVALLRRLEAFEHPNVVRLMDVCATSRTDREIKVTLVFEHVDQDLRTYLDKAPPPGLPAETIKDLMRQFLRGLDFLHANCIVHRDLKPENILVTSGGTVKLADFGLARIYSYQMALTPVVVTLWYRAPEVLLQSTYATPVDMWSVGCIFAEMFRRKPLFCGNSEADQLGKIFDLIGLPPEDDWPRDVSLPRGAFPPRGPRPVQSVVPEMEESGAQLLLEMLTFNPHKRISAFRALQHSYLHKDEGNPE
# Chain of NT-3 growth factor receptor (Q16288 whole entry): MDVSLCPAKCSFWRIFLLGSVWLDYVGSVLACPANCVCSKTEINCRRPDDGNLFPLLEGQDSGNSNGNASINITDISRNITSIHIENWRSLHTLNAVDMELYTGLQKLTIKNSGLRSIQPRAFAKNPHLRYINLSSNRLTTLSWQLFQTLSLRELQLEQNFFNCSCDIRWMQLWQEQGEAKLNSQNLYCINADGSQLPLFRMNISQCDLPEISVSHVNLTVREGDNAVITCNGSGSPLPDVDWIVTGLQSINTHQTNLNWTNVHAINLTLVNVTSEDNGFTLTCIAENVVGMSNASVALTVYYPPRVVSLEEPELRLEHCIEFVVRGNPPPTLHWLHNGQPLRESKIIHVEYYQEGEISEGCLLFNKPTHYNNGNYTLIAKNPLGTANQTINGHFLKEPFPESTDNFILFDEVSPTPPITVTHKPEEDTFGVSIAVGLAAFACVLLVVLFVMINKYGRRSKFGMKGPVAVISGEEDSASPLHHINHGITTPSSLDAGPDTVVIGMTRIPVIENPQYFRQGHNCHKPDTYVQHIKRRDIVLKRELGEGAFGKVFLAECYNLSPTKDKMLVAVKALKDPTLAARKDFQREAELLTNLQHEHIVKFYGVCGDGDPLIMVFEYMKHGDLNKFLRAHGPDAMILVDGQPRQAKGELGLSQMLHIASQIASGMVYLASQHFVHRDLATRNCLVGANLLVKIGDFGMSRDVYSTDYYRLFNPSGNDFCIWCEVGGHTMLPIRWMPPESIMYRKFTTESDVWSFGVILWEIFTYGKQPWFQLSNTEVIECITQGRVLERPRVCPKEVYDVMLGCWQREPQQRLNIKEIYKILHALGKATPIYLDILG
# Chain of Leukocyte tyrosine kinase receptor (Homo sapiens) (P29376 whole entry): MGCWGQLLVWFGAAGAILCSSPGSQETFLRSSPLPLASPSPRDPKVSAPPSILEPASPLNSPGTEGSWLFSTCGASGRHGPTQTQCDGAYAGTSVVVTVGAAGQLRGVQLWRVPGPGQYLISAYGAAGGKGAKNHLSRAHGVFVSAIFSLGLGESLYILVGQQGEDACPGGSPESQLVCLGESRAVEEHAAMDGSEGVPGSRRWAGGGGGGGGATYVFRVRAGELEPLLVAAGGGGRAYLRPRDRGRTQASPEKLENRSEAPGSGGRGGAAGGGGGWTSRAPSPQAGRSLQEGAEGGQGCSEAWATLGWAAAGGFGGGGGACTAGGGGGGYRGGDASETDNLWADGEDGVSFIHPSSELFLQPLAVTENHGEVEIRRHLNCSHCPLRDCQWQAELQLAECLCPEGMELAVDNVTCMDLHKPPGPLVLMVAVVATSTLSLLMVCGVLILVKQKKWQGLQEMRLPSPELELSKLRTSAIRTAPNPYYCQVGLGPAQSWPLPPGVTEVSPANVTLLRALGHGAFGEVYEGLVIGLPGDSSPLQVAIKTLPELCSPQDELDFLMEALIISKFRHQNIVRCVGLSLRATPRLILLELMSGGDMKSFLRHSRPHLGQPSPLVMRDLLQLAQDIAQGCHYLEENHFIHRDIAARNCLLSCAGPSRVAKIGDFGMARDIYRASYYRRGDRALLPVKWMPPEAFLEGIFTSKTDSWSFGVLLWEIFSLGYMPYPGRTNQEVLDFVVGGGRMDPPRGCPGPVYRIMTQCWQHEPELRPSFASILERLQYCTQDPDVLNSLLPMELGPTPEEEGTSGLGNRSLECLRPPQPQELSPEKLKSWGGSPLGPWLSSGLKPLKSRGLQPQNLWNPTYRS
structure (smiles),measurement,setting,value
CCc1nc(C(N)=O)c(Nc2ccc(N3CCC(N4CCN(C)CC4)CC3)c(OC)c2)nc1NC1CCOCC1 [GILTERITINIB],IC50,[1],0.35 nM
same,IC50,[2],1.8 nM
same,IC50,[3],2.1 nM
COc1cc2c(Oc3ccc(NC(=O)Nc4cccc(C)c4)cc3F)ccnc2cc1OCCCN1CCOCC1,IC50,[4],7 nM
same,IC50,[5],0.19 nM
same,IC50,[6],0.22 nM
same,IC50,[7],1.1 nM
same,IC50,[8],0.13 nM
same,IC50,[9],0.17 nM
same,IC50,[10],2.5 nM
same,IC50,[11],22 nM
same,IC50,[12],0.14 nM
COc1cc2ncc(-c3cccc(NC4CCNC4)n3)n2cc1-c1cnn(C)c1 (centres undefined),IC50,[13],0.6 nM
same,IC50,[14],< 0.5 nM
same,IC50,[15],1.1 nM
same,IC50,[16],0.7 nM
C[C@H]1CC[C@@H](n2c3cnccc3c3cnc(Nc4ccc5c(n4)CCN(C(=O)CO)C5)nc32)CC1,Kd,[4],4 nM
same,IC50,[17],3 nM
same,IC50,[18],8 nM
same,IC50,[19],375 nM
same,IC50,[20],18 nM
same,IC50,[21],9 nM
same,Kd,[22],1 nM
same,Kd,[23],1 nM
same,IC50,[24],1 nM
FC(F)(F)c1ccc(CNc2ccc(Cc3c[nH]c4ncc(Cl)cc34)cn2)cn1 [PEXIDARTINIB],IC50,[5],0.19 nM
same,IC50,[6],130 nM
same,IC50,[7],97 nM
same,IC50,[8],350 nM
same,IC50,[25],670 nM
same,IC50,[9],0.17 nM
same,IC50,[10],2.5 nM
same,IC50,[11],4700 nM
same,IC50,[12],200 nM
Cc1nn(C)cc1-c1nc2c(N3CCN(Cc4ccc(Cl)cc4)CC3)c(Cl)cnc2[nH]1 [MOBINITINIB],GI50,[26],100 nM
same,GI50,[27],180 nM
CCCNc1nc(Nc2ccc(C#N)cc2)ncc1C#CCCCNC(=O)[C@H](C)N(C)C(=O)/C=C/CN(C)C [FF-10101],IC50,[28],1.9 nM
same,IC50,[29],0.32 nM
same,GI50,[30],1.1 nM
same,GI50,[31],0.81 nM
same,GI50,[32],3.5 nM
same,GI50,[33],5.3 nM
same,GI50,[34],10 nM
C1=N/C2=N/c3ccc(OCCN4CCCC4)c(c3)COC/C=C/COCc3cccc(c3)C(=C1)N2 [PACRITINIB],IC50,[35],133 nM
same,IC50,[36],306 nM
same,IC50,[37],434 nM
same,IC50,[38],291 nM
same,IC50,[39],73 nM
same,IC50,[40],173 nM
